Test results taken from PMC5817723, “^99mTc-HYNIC-(tricine/EDDA)-FROP peptide for MCF-7 breast tumor targeting and imaging” (Journal of Biomedical Science, 2018).
Entries after “also recorded” stand apart in the source; their conditions may differ. Residues, ends and D or L forms follow the SMILES beside them. *: point of attachment. HYNIC = NNc1ccc(C(=O)*)cn1

Assays:
[1] = Stability in human plasma serum, RP-HPLC; format: in vitro ADME; conditions: 37 °C, triplicate
Protocol: Reversed phase-HPLC was performed on a Knauer HPLC systems (Knauer HPLC, Berlin, Germany) using a Lablogic radioactivity gamma detector with a Eurospher 100–5 C-18, 4.6 × 250 mm (Knauer, Berlin, Germany) column with a pre-column. (Knauer HPLC, Berlin, Germany) HPLC was run using a gradient of 0.1% TFA in H2O (solvent A) and 0.1% TFA in CH3CN (solvent B) at a flow rate of 1 mL/min. A gradient with solvents A and B was run as follows: 0 min, 10% B; 0–10 min, 10–30% B; 10–20 min, 30–80% B; and 20–25 min, 80–100% B, for a total time of 30 min.
(§1) The stability of ^99mTc-HYNIC-FROP in normal saline was evaluated using ITLC at various times (2, 4, 6 and 24 h) at room temperature. For serum stability, ^99mTc-HYNIC-FROP (30 μL) was incubated with freshly human plasma serum (90 μL) in triplicate at 37 °C. At 1 h of incubation, the plasma proteins were precipitated with a mixture of acetonitrile/ethanol (1:1 v/v) and centrifugation. The supernatant layer was filtered through a 0.22 μm filter and then the fraction was analyzed by RP-HPLC. Partition coefficient of ^99mTc-HYNIC-FROP was determined via method that previously was described.

MCF-7 cells [2] = assay: Saturation binding assay on MCF-7 cells; design: species or system human; conditions: saturation 30–250 nM, 30 min, nonlinear regression
Protocol: The cell-binding affinity of ^99mTc-HYNIC-FROP was assessed with saturation method. For determining of […] (Kd) and total number of binding sites (Bmax), ^99mTc-HYNIC-FROP was prepared in high radiochemical purity. MCF-7 cells were seeded into 24-well plates and incubated overnight. Then cells were incubated with various concentrations of radiolabeled peptide (30–250 nM) for 30 min. One dish was added blocking solution containing of 500-fold excess of highest concentration of ^99mTc-HYNIC-FROP. The cells were then washed with cold serum free medium to remove free radioactivity. The cells with bound radioactivity detached with trypsin and collected and radioactivity was measured. The (Kd) and (Bmax) value were calculated using Graphpad prism software based on specific binding of ^99mTc-HYNIC-FROP on MCF-7 cells.

[3] = test system: MCF-7 tumor bearing mouse; assay: Planar gamma camera tumor imaging; format: in vivo; conditions: MCF-7 xenograft nude mouse, i.v., 15 min p.i.
Protocol: For gamma camera imaging, MCF-7 tumor bearing mouse was intravenously injected through the tail with ^99mTc-HYNIC-FROP. After 15 min p.i. the mouse immediately was anesthetized using ketamine/xylazine and whole-body dynamic imaging was conducted. The imaging was performed at the department of radiology at Mazandaran Hospital by a dual-head e.cam gamma camera (Siemens Medical Systems, Inc.), equipped with a low-energy, high-resolution collimator. The evaluation of the image was performed using an e-soft (Siemens Medical Systems).

MCF-7 cells [4] = assay: In vitro specific binding (blocking) on MCF-7 cells; format: cell-based, human; conditions: pre-saturation 0.5 h at 37 °C with unlabeled FROP
Protocol: For specific binding experiment, the MCF-7 cells were saturated with 500-fold excess of unlabeled peptide prior adding of the ^99mTc-HYNIC-FROP to cells for 30 min.

[5] = test system: MCF-7, A-549 SKOV-3, PC-3, T47D and HFFF2 cell lines; assay: Cellular uptake on different cell lines; format: cell-based, human; conditions: 40 nM, 37 °C, 1 h
Protocol: The cellular uptake studies of ^99mTc-HYNIC-(tricine/EDDA)-FROP were performed on MCF-7, A-549 SKOV-3, PC-3, T47D and HFFF2 cell lines. The cells (5 × 10^5) were seeded in 12-well plates overnight and incubated with ^99mTc-HYNIC-FROP (40 nM) at 37 °C for 1 h. Incubation of the samples was terminated by removing medium and washing with cold serum-free medium. Thereafter, the cells were detached by trypsin and the radioactivity in the cell suspension was quantified.

[6] = In vitro stability in succinate buffer (peptide reaction mixture), %RCP by ITLC; format: physicochemical; conditions: room temperature, TLC, n = 3
Protocol: The radiochemical purity was determined by instant thin layer chromatography (ITLC) in different mobile phases such as methyl ethyl ketone (MEK), acetonitrile/water (50/50) and citrate solvent (0.1 M, pH 5.2) using a Lablogic mini scan TLC scanner (Sheffield, UK) and Laura image analysis software. In MEK, free ^99mTcO4^− migrated with the solvent front, while radiolabeled peptide remained at the application point. In the acetonitrile/water system, the colloids remained at the application point, while radiolabeled peptide migrated in front of solvent. The amount of labeled co-ligand was determined by citrate solvent, that free ^99mTcO4 Na and labeled co-ligand migrate in front of solvent while both RHT and labeled peptide (^99mTc-FROP) remind at the origin. A NaI (Tl) gamma detector (Delshid, Tehran, Iran) was used to for measurement of radioactivity.
as §1, with “The stability of ^99mTc-HYNIC-FROP in normal saline was evaluated using ITLC at various times (2, 4, 6 and 24 h) at room temperature.” left out

MCF-7 cells [7] = assay: Internalization study in MCF-7 cells; format: cell-based, human; conditions: MCF-7, 40 nM, acid wash urea buffer pH 2.5
Protocol: For internalization experiment, MCF-7 cells (1 × 10^6 cells) were seeded on the single plates and incubated with ^99mTc-HYNIC-FROP (40 nM) at 4 °C. After 1 h incubation, medium was removed and cells were washed with ice-cold serum free medium. Then 1 mL complete medium was added to each dish and cells were further incubated for 0.5, 1, 2, 6 and 24 h at 37 °C. After incubation, medium was removed from cellular plate and then was washed once with cold serum free medium. Then supernatant was collected, and for removing radioactivity bound to the surface of the cells, the acid wash with urea buffer (pH 2.5) was used. The internalized radiolabeled peptide was recovered by solubilizing the cells with 1 M NaOH at 37 °C for 5 min, and the surface-bound (acid-wash) and internalized (acid-resistant) radioactivity were measured with the gamma counter.

[8] = listed as 99mTc-HYNIC-(tricine/EDDA)-FROP
[9] = 5 × 10^5 cells, cell-associated radioactivity

Compound: CSCC[C@H](NC(=O)[C@H](CC(C)C)NC(=O)[C@H](CCC(=O)O)NC(=O)[C@H](Cc1ccc(O)cc1)NC(=O)[C@H](CC(=O)O)NC(=O)[C@@H](N)CCC(=O)O)C(=O)N[C@@H](CC(=O)O)C(=O)N[C@@H](CC(C)C)C(=O)N[C@@H](CC(C)C)C(=O)N[C@@H](C)C(=O)N[C@@H](Cc1ccc(O)cc1)C(=O)N[C@@H](CC(C)C)C(=O)N[C@@H](CCCCNC(=O)c1ccc(NN)nc1)C(=O)O [^99mTc-HYNIC-FROP, metal not drawn] (H-EDYELMDLLAYLK(HYNIC)-OH)
- stability in human plasma serum ([1]; 30 μL in 90 μL fresh human plasma serum, 1 h, RP-HPLC radiodetection): stable; also recorded: the major radioactivity was still associated with ^99mTc-FROP
- remaining at 1 h ([1]; abstract statement, human plasma serum, protein precipitation acetonitrile/ethanol 1:1, RP-HPLC): ~98%
- Bmax (maximum number of binding sites) (MCF-7 cells [2]; listed as 99mTc-HYNIC-(tricine-EDDA)-Lys-FROP): 4.5 ± 0.6 × 10^7 CPM/pMol
- Bmax (maximum number of binding sites) (MCF-7 cells [2]; [8]): (4.5±0.6)·10^7 CPM/pMol
- tumor visualization by planar gamma imaging [3]: tumor was clearly visualized
- tumor visualization by planar gamma imaging [3, 8]: tumor was clearly visible
- binding to MCF-7 cells with 500-fold excess of unlabeled peptide (FROP) (MCF-7 cells [4]): significant reduction
- MCF-7/A-549 ratio of uptake [5, 9]: 8.2
- MCF-7/PC-3 ratio of uptake [5, 9]: 2.3
- MCF-7/SKOV-3 ratio of uptake [5, 9]: 8.8
- MCF-7/T47D ratio of uptake [5, 9]: 4.5
- MCF-7/HFFF2 ratio of uptake ([5]; HFFF2 = normal human fibroblast): 9.7
- %RCP in succinate buffer (peptide reaction mixture) ([6]; 2 h): 99.6 ± 0.2%
- %RCP in succinate buffer (peptide reaction mixture) ([6]; 4 h): 99.5 ± 0.4%
- %RCP in succinate buffer (peptide reaction mixture) ([6]; 6 h): 99.1 ± 0.9%
- %RCP in succinate buffer (peptide reaction mixture) ([6]; 24 h): 96.8 ± 2.4%
- internalized radiolabeled peptide, % of the total radioactivity in the cells (MCF-7 cells [7]; 1 h at 4 °C then 30 min at 37 °C): 10.6 ± 0.8%
- internalized radiolabeled peptide, % of the total radioactivity in the cells (MCF-7 cells [7]; 1 h at 4 °C then 6 h at 37 °C): 18.3 ± 2.3%
